Results from article PMC12533803, “Rotenoids from the Roots of Vicia faba L. (Fabaceae): Structural Characterization, Cytotoxic Effects, and Molecular Docking” (Chemistry & Biodiversity, 2025).

Assays:
[1] = tested on: 501Mel (melanoma) cell line; experiment: MTT cytotoxicity assay, 501Mel; type: cell-based, human; details: for cytotoxic activity 501Mel: 0.0032 to 50 µM, 72 h
Method: (§1) ATCC CCL 247), 501Mel (melanoma; RRID: CVCL_4633), and MCF‐7 (breast adenocarcinoma; ATCC HTB 22), along with non‐tumor cells line NIH/3T3 (mouse embryonic fibroblast; ATCC CRL 1658). […] Cells were kept at 37°C in a humidified atmosphere containing 5% CO2. […] At the end of the incubation period, the culture medium was replaced with a fresh medium containing MTT solution (0.5 mg/mL) and further incubated for 3 h. The MTT solution was then removed, and the formazan crystals formed were dissolved in 150 µL of DMSO. Absorbance for each well was measured at 570 nm, and then the values thereof were normalized in the percentage of viable cells based on that of the negative control.

[2] = tested on: NIH/3T3 (mouse embryonic fibroblast) cell line; experiment: MTT cytotoxicity assay, non-tumor NIH/3T3; type: cell-based; details: for cytotoxic activity NIH/3T3: 0.0032 to 50 µM, 72 h
Method: as §1

[3] = tested on: MCF‐7 (breast adenocarcinoma) cell line; experiment: MTT cytotoxicity assay, MCF-7; type: cell-based, human; details: for cytotoxic activity MCF‐7: MTT, 0.0032 to 50 µM, 72 h
Method: as §1

[4] = tested on: HCT‐116 (human colorectal carcinoma) cell line; experiment: MTT cytotoxicity assay, HCT-116; type: cell-based; details: for cytotoxic activity HCT‐116: MTT, 0.0032 to 50 µM, 72 h
Method: as §1

| SMILES | cytotoxic activity 501Mel ([1]; MTT) | cytotoxic activity NIH/3T3 [2] | cytotoxic activity MCF‐7 [3] | cytotoxic activity HCT‐116 [4] | Selectivity Index (SI) 501Mel ([1]; 501Mel versus NIH/3T3) | IC50 ([1]; Homo sapiens, MTT, 72 h incubation) [nM] | IC50 ([2]; Mus musculus, NIH3T3, 72 h incubation, non-tumor cells) [nM] | Selectivity Index (SI) MCF‐7 ([3]; MCF-7 versus NIH/3T3) | Selectivity Index (SI) HCT‐116 ([4]; HCT-116 versus NIH/3T3) |
| --- | --- | --- | --- | --- | --- | --- | --- | --- | --- |
| COc1ccc(-c2coc3cc(OC)c(O)cc3c2=O)cc1 [Compound 2, Alfalone] | no cytotoxic activity | no cytotoxic activity | no cytotoxic activity | no cytotoxic activity |  |  |  |  |  |
| COc1ccc(-c2coc3c(OC)c(O)ccc3c2=O)cc1 [Compound 3, 8‐O‐methylretusin] | no cytotoxic activity | no cytotoxic activity | no cytotoxic activity | no cytotoxic activity |  |  |  |  |  |
| COc1cccc2c1C(=O)c1c(O)c3c(c(O)c1C2=O)C[C@@](O)(C(=O)CO)C[C@@H]3O[C@H]1C[C@H](N)[C@H](O)[C@H](C)O1 [Doxorubicin, reference compound] |  |  |  |  | 2.91 | 120 | 350 | 11.67 | 7.0 |
